Where “and” joins values, the source holds several entries; their conditions need not be identical. Equal values may be shown once.
Key:
mouse = test system: mouse
Procedure: Butyric acid was dissolved in water to form an 8 M solution. 0.5 mL of the 8 M solution of butyric acid was injected subcutaneously (at the back of the neck) into the mouse.
3-hydroxybutyric acid was dissolved in water to form 1 M, 1.5 M, and 2 M solutions. 0.2 mL of a 1.5 M solution of 3-hydroxybutyric acid was injected into a tail vein of a CD-1 mouse. […] This was repeated for at least 2 more times on subsequent days.
Ethylmalonic acid was dissolved in water to form 2 M, 3 M, and 4 M solutions. 0.2 mL of a 3 M solution of ethylmalonic acid was injected into a tail vein of a mouse. […] This was repeated for at least 2 more times on subsequent days.
Ethylmalonic acid was dissolved in water to form a 4 M solution. 0.5 mL of the 4 M solution of ethylmalonic acid was injected subcutaneously into the mouse.

CF-1 mice = experiment: Anticonvulsant test in mice: metrazol (pentylenetetrazol) tail vein infusion, time to twitch and seizure; format: in vivo, mouse; conditions: 8 M butyric acid solution plus metrazol
Procedure: CF-1 mice were used in this study. Number 20 PE tubing to cannulate a mouse tail vein was used. An infusion pump was used to deliver a solution at a rate of 0.34 mL/min. A hemostat was used to prevent backflow in the PE tubing before the experiment stated. To begin the experiment, the hemostat that was clamped to the PE 20 tubing was removed, the infusion of the solution was started into the tail IV of the mouse, and the timer was started.
The study reflects the time in seconds from the start of the infusion to the time of twitch and onset of seizure, or 90 seconds, whichever is sooner. When the seizure occurs, the infusion is turned off.
As a control, metrazol (pentylenetetrazol) in a 0.5% solution (5 mg/mL) in water was prepared. Pentylenetetrazol is used as a control to study seizure phenomena in and to identify compounds that may control seizure susceptibility. Solutions of 8 M butyric acid and 1.5 M 3-hydroxybutyric acid were made.
The time to twitch and time to seizure of the mouse in seconds is recorded in Tables 3-5, below.

Tadpoles = experiment: Tadpole anesthesia test (movement suppressed on contact with rod); format: in vivo; conditions: read-out: Movement suppressed (%)
Procedure: Tadpoles were placed in a petri dish containing aquarium water. Four to eight tadpoles were placed in each petri dish. The aquarium water contained the specified test compound at the listed concentration. When the tadpoles stopped moving, a plastic rod was used to elicit motion once again by contact between the rod and tadpole. […] From this and the number of subjects, the percent of tadpoles in which movement was suppressed were calculated.
After 1 to 30 minutes, they were again contacted with a rod to ensure the anesthetic effect had worn off.
In some examples, subanesthetic concentrations of ethanol were added into the aquarium water. Tadpoles in which movement was prevented with exposure to a test compound and ethanol but not with exposure to a test compound alone were classified as partial anesthetics.

[1] = 0.5 mL of 8 M solution in water, subcutaneous (back of the neck)

## CCCC(=O)O [Butyric acid]
mouse; 0.2 mL of 8 M solution in water, intravenous, tail vein
  Lethality to the mouse: lethal
mouse; [1]
  Anesthetic effect on the mouse: became anesthetized or lost consciousness
  Time until mouse became anesthetized or lost consciousness: 10 to 15 min
  Time until mouse woke up: several hours
CF-1 mice; average of 13 mice
  Butyric Acid and Metrazol Time to Seizures (seconds), Avg.: 51.2 s
  Butyric Acid and Metrazol Time to Twitch (seconds), Avg.: 41.4 s
CF-1 mice; individual mice
  Butyric Acid and Metrazol Time to Seizures: 51 seconds and 50 seconds (2×) and 47 seconds and 57 seconds (3×) and 42 seconds and 66 seconds and 41 seconds and 44 seconds and 38 seconds and 65 seconds
  Butyric Acid and Metrazol Time to Twitch: 38 seconds and 42 seconds and 44 seconds and 50 seconds and 34 seconds (2×) and 53 seconds (2×) and 48 seconds and 36 seconds (2×) and 35 seconds (2×)
Tadpoles
  responders at 62500 µM: 100%
  responders at 125000 µM: 100%
  responders at 250000 µM: 100%
  responders at 500000 µM: 100%
